Experimental data published in ChEMBL document CHEMBL4804286, “3-amino-4-(4-(4 (dimethylcarbamoyl) phenyl)-1,4-diazepan-1-yl) thieno [2,3-b] pyridine-2-carboxamide for use in cancer therapy and formulations comprising the same” (2020).
Several values for one entry are separate records, joined by “and”; a condition that tells them apart may be missing. Equal values may be shown once. Activity calls are given as the source filed them. The calls are words filed in the database; no cut-off is given here.

Tests used:
[1] = tested on: Phosphatidylinositol 4,5-bisphosphate 3-kinase catalytic subunit alpha isoform (Homo sapiens), P42336 [H1047Y]; experiment: Inhibition of human PIK3CA H1047Y mutant assessed as percent of control at 2000 nM by KINOMEscan assay relative to control; parameters: scale not given: the % may be the effect or the level left
[2] = molecular target: RAF proto-oncogene serine/threonine-protein kinase (Homo sapiens) (UniProt P04049); experiment: Inhibition of human RAF1 assessed as percent of control at 2000 nM by KINOMEscan assay relative to control; parameters: scale not given: the % may be the effect or the level left
[3] = tested on: Proto-oncogene tyrosine-protein kinase receptor Ret (Homo sapiens), P07949 [V804L]; experiment: Inhibition of human RET V804L mutant assessed as percent of control at 2000 nM by KINOMEscan assay relative to control; parameters: scale not given: the % may be the effect or the level left
[4] = molecular target: Myotonin-protein kinase (Homo sapiens) (UniProt Q09013); experiment: Inhibition of human DMPK assessed as percent of control at 2000 nM by KINOMEscan assay relative to control; parameters: scale not given: the % may be the effect or the level left
[5] = molecular target: Ribosomal protein S6 kinase alpha-6 (Homo sapiens) (UniProt Q9UK32); experiment: Inhibition of human N-terminal RSK4 kinase domain 1 assessed as percent of control at 2000 nM by KINOMEscan assay relative to control; parameters: scale not given: the % may be the effect or the level left
[6] = molecular target: MAP/microtubule affinity-regulating kinase 4 (Homo sapiens) (UniProt Q96L34); experiment: Inhibition of human MARK4 assessed as percent of control at 2000 nM by KINOMEscan assay relative to control; parameters: scale not given: the % may be the effect or the level left
[7] = tested on: Epidermal growth factor receptor (Homo sapiens), P00533 [L858R]; experiment: Inhibition of human EGFR L858R mutant assessed as percent of control at 2000 nM by KINOMEscan assay relative to control; parameters: scale not given: the % may be the effect or the level left
[8] = tested on: Leucine-rich repeat serine/threonine-protein kinase 2 (Homo sapiens), Q5S007 [G2019S]; experiment: Inhibition of human LRRK2 G2019S mutant assessed as percent of control at 2000 nM by KINOMEscan assay relative to control; parameters: scale not given: the % may be the effect or the level left
Chain of Leucine-rich repeat serine/threonine-protein kinase 2 (Homo sapiens), Q5S007 [G2019S] (Q5S007 whole entry G2019S): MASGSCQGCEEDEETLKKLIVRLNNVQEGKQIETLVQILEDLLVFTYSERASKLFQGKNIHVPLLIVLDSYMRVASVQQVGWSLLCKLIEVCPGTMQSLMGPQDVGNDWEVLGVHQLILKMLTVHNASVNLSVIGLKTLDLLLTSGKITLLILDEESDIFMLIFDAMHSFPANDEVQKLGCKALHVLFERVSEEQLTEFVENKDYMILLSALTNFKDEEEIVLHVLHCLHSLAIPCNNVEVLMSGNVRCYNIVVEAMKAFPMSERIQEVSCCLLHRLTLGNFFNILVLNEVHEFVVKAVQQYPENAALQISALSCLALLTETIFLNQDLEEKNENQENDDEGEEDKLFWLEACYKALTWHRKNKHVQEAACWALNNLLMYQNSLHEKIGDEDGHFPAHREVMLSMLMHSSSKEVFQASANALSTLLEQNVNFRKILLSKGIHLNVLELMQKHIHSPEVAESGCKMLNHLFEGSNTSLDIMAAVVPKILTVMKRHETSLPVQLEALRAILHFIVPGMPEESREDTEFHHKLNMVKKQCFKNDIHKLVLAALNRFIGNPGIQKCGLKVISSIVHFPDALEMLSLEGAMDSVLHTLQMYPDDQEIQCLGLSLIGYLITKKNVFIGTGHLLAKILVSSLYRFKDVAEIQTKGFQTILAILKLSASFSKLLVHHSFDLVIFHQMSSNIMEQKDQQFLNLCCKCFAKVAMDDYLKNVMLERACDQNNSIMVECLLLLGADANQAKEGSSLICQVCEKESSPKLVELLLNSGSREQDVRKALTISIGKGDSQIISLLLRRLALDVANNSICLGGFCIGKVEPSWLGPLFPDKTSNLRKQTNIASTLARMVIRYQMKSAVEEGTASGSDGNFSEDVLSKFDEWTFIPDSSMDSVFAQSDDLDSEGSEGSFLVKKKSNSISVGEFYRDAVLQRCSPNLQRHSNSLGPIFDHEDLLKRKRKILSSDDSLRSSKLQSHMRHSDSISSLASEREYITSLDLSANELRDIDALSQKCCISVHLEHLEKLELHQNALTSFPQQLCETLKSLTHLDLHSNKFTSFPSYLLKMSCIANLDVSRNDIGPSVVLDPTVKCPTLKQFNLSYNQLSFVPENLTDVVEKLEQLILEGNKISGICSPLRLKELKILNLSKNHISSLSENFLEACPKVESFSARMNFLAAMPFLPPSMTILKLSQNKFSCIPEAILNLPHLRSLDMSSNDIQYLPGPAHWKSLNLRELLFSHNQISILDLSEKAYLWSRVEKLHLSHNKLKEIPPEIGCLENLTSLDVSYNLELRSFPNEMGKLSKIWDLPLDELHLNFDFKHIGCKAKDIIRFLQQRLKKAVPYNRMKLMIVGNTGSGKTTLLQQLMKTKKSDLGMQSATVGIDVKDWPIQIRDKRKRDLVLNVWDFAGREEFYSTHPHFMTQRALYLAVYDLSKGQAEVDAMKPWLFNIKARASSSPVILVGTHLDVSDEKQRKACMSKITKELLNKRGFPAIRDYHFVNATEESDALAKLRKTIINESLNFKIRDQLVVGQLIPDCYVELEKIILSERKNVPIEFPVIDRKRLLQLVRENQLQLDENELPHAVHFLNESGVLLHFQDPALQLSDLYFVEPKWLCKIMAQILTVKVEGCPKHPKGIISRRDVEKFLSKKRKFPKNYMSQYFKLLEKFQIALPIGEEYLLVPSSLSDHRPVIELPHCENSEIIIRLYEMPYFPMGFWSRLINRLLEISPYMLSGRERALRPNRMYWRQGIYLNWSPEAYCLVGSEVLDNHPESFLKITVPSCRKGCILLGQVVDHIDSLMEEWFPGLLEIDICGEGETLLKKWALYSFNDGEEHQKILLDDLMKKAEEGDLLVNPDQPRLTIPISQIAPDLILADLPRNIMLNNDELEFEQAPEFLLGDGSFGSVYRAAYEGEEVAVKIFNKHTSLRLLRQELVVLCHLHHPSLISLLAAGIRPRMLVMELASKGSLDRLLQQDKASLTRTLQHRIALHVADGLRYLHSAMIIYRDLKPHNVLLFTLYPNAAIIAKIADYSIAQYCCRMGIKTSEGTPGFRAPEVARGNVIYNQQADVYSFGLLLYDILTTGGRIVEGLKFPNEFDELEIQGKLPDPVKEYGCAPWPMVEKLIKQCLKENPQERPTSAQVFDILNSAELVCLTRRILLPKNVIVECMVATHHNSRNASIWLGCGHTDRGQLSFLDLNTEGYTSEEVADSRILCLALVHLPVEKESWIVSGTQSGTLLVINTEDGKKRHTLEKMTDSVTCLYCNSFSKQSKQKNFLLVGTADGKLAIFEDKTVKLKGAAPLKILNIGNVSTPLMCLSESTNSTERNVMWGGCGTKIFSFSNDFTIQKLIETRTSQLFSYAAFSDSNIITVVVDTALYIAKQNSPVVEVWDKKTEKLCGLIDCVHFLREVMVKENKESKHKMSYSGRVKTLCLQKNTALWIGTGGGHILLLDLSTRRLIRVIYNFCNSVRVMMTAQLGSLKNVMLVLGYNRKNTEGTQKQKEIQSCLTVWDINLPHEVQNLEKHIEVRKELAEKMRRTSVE

[9] = molecular target: Homeodomain-interacting protein kinase 4 (Homo sapiens) (UniProt Q8NE63); experiment: Inhibition of human HIPK4 assessed as percent of control at 2000 nM by KINOMEscan assay relative to control; parameters: scale not given: the % may be the effect or the level left
[10] = molecular target: Serine/threonine-protein kinase SIK3 (Homo sapiens) (UniProt Q9Y2K2); experiment: Inhibition of human QSK assessed as percent of control at 2000 nM by KINOMEscan assay relative to control; parameters: scale not given: the % may be the effect or the level left
[11] = molecular target: Membrane-associated tyrosine- and threonine-specific cdc2-inhibitory kinase (Homo sapiens) (UniProt Q99640); experiment: Inhibition of human PKMYT1 assessed as percent of control at 2000 nM by KINOMEscan assay relative to control; parameters: scale not given: the % may be the effect or the level left
[12] = molecular target: Mitogen-activated protein kinase 12 (Homo sapiens) (UniProt P53778); experiment: Inhibition of human p38-gamma assessed as percent of control at 2000 nM by KINOMEscan assay relative to control; parameters: scale not given: the % may be the effect or the level left
Chain of Mitogen-activated protein kinase 12 (Homo sapiens) (P53778 whole entry): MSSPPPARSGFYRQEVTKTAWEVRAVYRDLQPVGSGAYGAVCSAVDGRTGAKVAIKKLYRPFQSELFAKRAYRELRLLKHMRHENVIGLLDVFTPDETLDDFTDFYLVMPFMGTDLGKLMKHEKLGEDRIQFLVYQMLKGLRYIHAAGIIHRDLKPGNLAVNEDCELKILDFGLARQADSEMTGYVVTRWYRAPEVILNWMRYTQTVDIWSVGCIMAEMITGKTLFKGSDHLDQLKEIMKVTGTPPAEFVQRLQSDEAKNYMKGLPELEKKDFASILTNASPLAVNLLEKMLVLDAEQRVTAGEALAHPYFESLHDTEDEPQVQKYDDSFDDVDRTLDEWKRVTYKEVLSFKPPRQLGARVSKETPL

[13] = molecular target: Proto-oncogene tyrosine-protein kinase receptor Ret (Homo sapiens) (UniProt P07949); experiment: Inhibition of human RET assessed as percent of control at 2000 nM by KINOMEscan assay relative to control; parameters: scale not given: the % may be the effect or the level left
[14] = molecular target: Interleukin-1 receptor-associated kinase 3 (Homo sapiens) (UniProt Q9Y616); experiment: Inhibition of human IRAK3 assessed as percent of control at 2000 nM by KINOMEscan assay relative to control; parameters: scale not given: the % may be the effect or the level left
Chain of Interleukin-1 receptor-associated kinase 3 (Homo sapiens) (Q9Y616 whole entry): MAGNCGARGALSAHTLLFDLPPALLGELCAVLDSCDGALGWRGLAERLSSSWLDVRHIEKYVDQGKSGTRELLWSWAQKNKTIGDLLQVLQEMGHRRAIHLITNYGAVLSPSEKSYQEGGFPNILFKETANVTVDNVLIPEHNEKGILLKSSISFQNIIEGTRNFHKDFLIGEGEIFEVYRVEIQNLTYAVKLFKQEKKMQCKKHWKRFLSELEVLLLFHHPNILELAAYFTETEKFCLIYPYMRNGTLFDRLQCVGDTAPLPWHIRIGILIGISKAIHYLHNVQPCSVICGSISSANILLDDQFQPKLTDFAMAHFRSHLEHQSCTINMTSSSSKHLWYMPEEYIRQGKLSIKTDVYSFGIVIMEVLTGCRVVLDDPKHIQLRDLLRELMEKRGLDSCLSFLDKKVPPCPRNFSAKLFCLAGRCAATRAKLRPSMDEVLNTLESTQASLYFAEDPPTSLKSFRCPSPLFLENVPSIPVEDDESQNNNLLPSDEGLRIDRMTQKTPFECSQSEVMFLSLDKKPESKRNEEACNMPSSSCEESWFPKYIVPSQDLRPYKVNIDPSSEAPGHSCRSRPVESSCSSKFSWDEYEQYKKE

[15] = molecular target: Receptor-type tyrosine-protein kinase FLT3 (Homo sapiens) (UniProt P36888); experiment: Inhibition of human autoinhibited FLT3 assessed as percent of control at 2000 nM by KINOMEscan assay relative to control; parameters: scale not given: the % may be the effect or the level left
[16] = molecular target: Cyclin-dependent kinase-like 3 (Homo sapiens) (UniProt Q8IVW4); experiment: Inhibition of human CDKL3 assessed as percent of control at 2000 nM by KINOMEscan assay relative to control; parameters: scale not given: the % may be the effect or the level left
[17] = molecular target: Rho-associated protein kinase 1 (Homo sapiens) (UniProt Q13464); experiment: Inhibition of human ROCK1 assessed as percent of control at 2000 nM by KINOMEscan assay relative to control; parameters: scale not given: the % may be the effect or the level left
Chain of Rho-associated protein kinase 1 (Homo sapiens) (Q13464 2-1354 limits assumed): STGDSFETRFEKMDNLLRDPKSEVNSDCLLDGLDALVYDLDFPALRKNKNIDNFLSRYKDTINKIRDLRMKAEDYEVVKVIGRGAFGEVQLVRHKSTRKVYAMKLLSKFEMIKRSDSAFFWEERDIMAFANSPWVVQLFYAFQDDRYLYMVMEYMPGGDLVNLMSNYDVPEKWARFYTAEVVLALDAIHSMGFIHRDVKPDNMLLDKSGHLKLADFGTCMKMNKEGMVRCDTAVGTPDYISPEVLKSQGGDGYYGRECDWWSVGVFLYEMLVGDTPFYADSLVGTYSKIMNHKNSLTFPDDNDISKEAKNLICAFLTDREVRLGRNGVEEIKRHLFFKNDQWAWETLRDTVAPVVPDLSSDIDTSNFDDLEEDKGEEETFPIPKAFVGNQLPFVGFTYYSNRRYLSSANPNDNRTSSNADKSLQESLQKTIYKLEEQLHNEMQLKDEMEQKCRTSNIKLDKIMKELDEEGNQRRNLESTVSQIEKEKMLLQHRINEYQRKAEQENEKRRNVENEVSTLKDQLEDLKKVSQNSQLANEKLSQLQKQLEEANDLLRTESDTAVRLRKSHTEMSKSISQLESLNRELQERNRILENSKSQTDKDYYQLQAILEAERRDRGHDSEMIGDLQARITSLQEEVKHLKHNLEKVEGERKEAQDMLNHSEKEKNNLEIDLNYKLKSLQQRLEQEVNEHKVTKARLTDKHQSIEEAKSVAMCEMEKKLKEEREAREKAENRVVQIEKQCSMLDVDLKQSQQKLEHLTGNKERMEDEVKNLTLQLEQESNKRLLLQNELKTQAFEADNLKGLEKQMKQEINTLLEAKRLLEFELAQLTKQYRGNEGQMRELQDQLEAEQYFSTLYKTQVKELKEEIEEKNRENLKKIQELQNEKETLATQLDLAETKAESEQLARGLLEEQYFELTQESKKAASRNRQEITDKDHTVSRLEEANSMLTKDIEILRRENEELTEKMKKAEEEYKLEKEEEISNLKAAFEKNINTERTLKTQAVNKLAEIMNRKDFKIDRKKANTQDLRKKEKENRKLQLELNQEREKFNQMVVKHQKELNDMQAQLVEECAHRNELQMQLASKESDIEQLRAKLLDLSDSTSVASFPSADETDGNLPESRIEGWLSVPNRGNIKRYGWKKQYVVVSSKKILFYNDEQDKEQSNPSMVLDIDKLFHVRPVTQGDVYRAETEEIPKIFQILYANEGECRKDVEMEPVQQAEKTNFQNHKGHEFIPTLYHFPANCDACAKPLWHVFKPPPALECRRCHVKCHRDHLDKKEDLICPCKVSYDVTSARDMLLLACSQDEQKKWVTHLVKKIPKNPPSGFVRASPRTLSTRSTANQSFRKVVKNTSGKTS

[18] = molecular target: Fibroblast growth factor receptor 3 (Homo sapiens) (UniProt P22607); experiment: Inhibition of human FGFR3 assessed as percent of control at 2000 nM by KINOMEscan assay relative to control; parameters: scale not given: the % may be the effect or the level left
[19] = molecular target: SRSF protein kinase 2 (Homo sapiens) (UniProt P78362); experiment: Inhibition of human SRPK2 assessed as percent of control at 2000 nM by KINOMEscan assay relative to control; parameters: scale not given: the % may be the effect or the level left
[20] = tested on: Epidermal growth factor receptor (Homo sapiens), P00533 [UNDEFINED MUTATION]; experiment: Inhibition of human EGFR E746-A750del mutant assessed as percent of control at 2000 nM by KINOMEscan assay relative to control; parameters: scale not given: the % may be the effect or the level left
[21] = molecular target: Atypical kinase COQ8A, mitochondrial (Homo sapiens) (UniProt Q8NI60); experiment: Inhibition of human ADCK3 assessed as percent of control at 2000 nM by KINOMEscan assay relative to control; parameters: scale not given: the % may be the effect or the level left
[22] = tested on: Receptor-type tyrosine-protein kinase FLT3 (Homo sapiens), P36888 [UNDEFINED MUTATION]; experiment: Inhibition of human FLT3 ITD mutant assessed as percent of control at 2000 nM by KINOMEscan assay relative to control; parameters: scale not given: the % may be the effect or the level left
[23] = molecular target: Tyrosine-protein kinase receptor TYRO3 (Homo sapiens) (UniProt Q06418); experiment: Inhibition of human TYRO3 assessed as percent of control at 2000 nM by KINOMEscan assay relative to control; parameters: scale not given: the % may be the effect or the level left
[24] = molecular target: Activin receptor type-1-like (Homo sapiens) (UniProt P37023); experiment: Inhibition of human ACVRL1 assessed as percent of control at 2000 nM by KINOMEscan assay relative to control; parameters: scale not given: the % may be the effect or the level left
[25] = molecular target: Tyrosine-protein kinase Yes (Homo sapiens) (UniProt P07947); experiment: Inhibition of human YES assessed as percent of control at 2000 nM by KINOMEscan assay relative to control; parameters: scale not given: the % may be the effect or the level left
[26] = molecular target: Tyrosine-protein kinase Mer (Homo sapiens) (UniProt Q12866); experiment: Inhibition of human MERTK assessed as percent of control at 2000 nM by KINOMEscan assay relative to control; parameters: scale not given: the % may be the effect or the level left
[27] = molecular target: Serine/threonine-protein kinase DCLK1 (Homo sapiens) (UniProt O15075); experiment: Inhibition of human DCAMKL1 assessed as percent of control at 2000 nM by KINOMEscan assay relative to control; parameters: scale not given: the % may be the effect or the level left
[28] = molecular target: Mitogen-activated protein kinase kinase kinase kinase 5 (Homo sapiens) (UniProt Q9Y4K4); experiment: Inhibition of human MAP4K5 assessed as percent of control at 2000 nM by KINOMEscan assay relative to control; parameters: scale not given: the % may be the effect or the level left
[29] = tested on: 4T1; experiment: Antitumor activity against murine 4T1 cells xenografted in mouse assessed as suppression of tumor volume at 25 mg/kg, po administered twice a day; type: functional, organism-based
[30] = molecular target: Insulin-like growth factor 1 receptor (Homo sapiens) (UniProt P08069); experiment: Inhibition of human IGF1R assessed as percent of control at 2000 nM by KINOMEscan assay relative to control; parameters: scale not given: the % may be the effect or the level left
[31] = tested on: Epidermal growth factor receptor (Homo sapiens), P00533 [UNDEFINED MUTATION]; experiment: Inhibition of human EGFR L747-E749del/A750P double mutant assessed as percent of control at 2000 nM by KINOMEscan assay relative to control; parameters: scale not given: the % may be the effect or the level left

CN(C)C(=O)c1ccc(N2CCCN(c3ccnc4sc(C(N)=O)c(N)c34)CC2)cc1
Activity [1]: 79% and 100%
Activity [2]: 97% and 100%
Activity [3]: 100%
Activity [4]: 97%
Activity [5]: 78% and 80%
Activity [6]: 100% and 98%
Activity [7]: 99% and 93%
Activity [8]: 90% and 76%
Activity [9]: 100%
Activity [10]: 89% and 97%
Activity [11]: 91% and 94%
Activity [12]: 98% and 100%
Activity [13]: 93% and 86%
Activity [14]: 93% and 89%
Activity [15]: 72% and 77%
Activity [16]: 100%
Activity [17]: 77% and 67%
Activity [18]: 98% and 99%
Activity [19]: 93% and 100%
Activity [20]: 100%
Activity [21]: 90% and 100%
Activity [22]: 82% and 72%
Activity [23]: 100%
Activity [24]: 99% and 100%
Activity [25]: 99% and 100%
Activity [26]: 89% and 100%
Activity [27]: 100% and 89%
Activity [28]: 100% and 97%
Activity [29]: Active
Activity [30]: 92% and 91%
Activity [31]: 99% and 100%
